The text below walks through data of US20250009745A1, “CDK INHIBITOR” (SHANGHAI QILU PHARMACEUTICAL RESEARCH AND DEVELOPMENT …, priority 2021, published 2025).

Experiment in all cases: CDK enzymology experiment in vitro, capillary mobility shift assay (MSA)
Common to all, as to assay type: biochemical

The target of one assay is T1, CDK2 (Homo sapiens, UniProt P24941).
T1 construct: purchased Carna Company
Particulars: read-out: CDK2 (nM) inhibitory IC50. An outline of the steps: (§1)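 Recombinant kinases tested against peptide substrates in 1× kinase buffer, with compound added as a 100-fold DMSO stock. Top concentration 1, 10 or 30 μM, 3-fold dilutions over 10 points, in duplicate. Substrate conversion read by Caliper EZ Reader, normalised to no-enzyme and no-compound controls, and IC50 fitted with a variable-slope log(inhibitor)–response model.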

The target of another assay is T2, CDK4 (Homo sapiens, UniProt P11802).
T2 construct: purchased Carna Company
T2 sequence (P11802 whole entry): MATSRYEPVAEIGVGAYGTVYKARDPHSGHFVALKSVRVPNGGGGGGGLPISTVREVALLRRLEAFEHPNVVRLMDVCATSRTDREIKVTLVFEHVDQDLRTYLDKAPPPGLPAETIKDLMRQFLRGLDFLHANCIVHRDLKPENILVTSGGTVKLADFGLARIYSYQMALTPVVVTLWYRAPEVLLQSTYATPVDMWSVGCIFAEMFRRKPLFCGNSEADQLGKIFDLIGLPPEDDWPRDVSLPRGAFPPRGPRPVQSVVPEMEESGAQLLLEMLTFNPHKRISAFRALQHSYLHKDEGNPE
T2 sequence (P30281 whole entry partner): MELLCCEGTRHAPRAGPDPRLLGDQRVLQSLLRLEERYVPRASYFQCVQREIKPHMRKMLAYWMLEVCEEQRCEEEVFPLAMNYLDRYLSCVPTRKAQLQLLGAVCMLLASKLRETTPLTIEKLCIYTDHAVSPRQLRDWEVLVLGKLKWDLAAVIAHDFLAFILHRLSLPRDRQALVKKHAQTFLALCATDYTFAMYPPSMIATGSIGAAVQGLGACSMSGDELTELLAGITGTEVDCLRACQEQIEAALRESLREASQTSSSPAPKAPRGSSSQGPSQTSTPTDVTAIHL
Particulars: read-out: CDK4 (nM) inhibitory IC50. An outline of the steps: as §1

A further assay addresses T3, CDK6 (Homo sapiens, UniProt Q00534).
T3 construct: purchased Carna Company
On the procedure:
CDK1/CDK2/CDK4/CDK6/CDK7/CDK9 were purchased from Carna Company; Carliper substrate CTD3/substrate 18/substrate 8 were purchased from Gil Biochemical Company; Dinaciclib/Palbociclib were purchased from Selleckchem Company; DMSO was purchased from Sigma Company; 384-well plates were purchased from Corning Company.
• (1) Preparation of 1×Kinase buffer. • (2) Preparation of compound concentration gradient: Test concentration of the test compound was started at 1 μM, 10 μM or 30 μM, 3-fold dilution, 10 concentrations, detected in duplicate. […] Liquid handler Echo 550 was used to transfer 250 nL of 100-fold final concentration of the compound to the target plate 384-well plate. […] The 384-well plate was centrifuged at 1000 rpm for 30 seconds, and shaken to mix uniformly. • (10) The conversion rate was read with Caliper EZ Reader.
Where, conversion %_sample is the readings of conversion rate of the sample; conversion %_min: the average value of negative control wells, representing the readings of conversion rate of wells without enzyme activity; conversion %_max: the average value of positive control wells, representing the readings of conversion rate of wells without compound inhibition.
Taking the log value of the concentration as the X-axis, and the percentage inhibition rate as the Y-axis, the dose-effect curve was fitted using the log(inhibitor) vs. response—Variable slope of the analysis software GraphPad Prism 5 so as to obtain the IC50 value of each compound on the enzyme activity.
Y=Bottom+(Top−Bottom)/(1+10^((Log IC50−X)*HillSlope)). Calculation formula: […]

Where [1] appears, read: read-out: CDK6 (nM) inhibitory IC50.

In general, IC50 refers to the concentration at which inhibition is half-maximal.

SMILES strings stand for the structures. Like-named read-outs stand apart in the source and are kept apart here.

T3 sequence (Q00534 whole entry): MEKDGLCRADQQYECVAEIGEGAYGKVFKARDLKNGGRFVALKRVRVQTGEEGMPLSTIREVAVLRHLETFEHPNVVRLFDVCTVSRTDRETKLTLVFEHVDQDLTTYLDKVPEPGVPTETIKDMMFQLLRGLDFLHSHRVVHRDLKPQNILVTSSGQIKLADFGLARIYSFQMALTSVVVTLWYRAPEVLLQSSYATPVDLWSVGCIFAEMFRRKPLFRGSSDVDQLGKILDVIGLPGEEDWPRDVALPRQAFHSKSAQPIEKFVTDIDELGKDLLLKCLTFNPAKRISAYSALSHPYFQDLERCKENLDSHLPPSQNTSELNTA
T3 sequence (P30281 whole entry partner): as the sequence (P30281 whole entry partner) above

For the compound `Cn1cc(S(=O)(=O)N2CCC(Nc3ncc(C#N)c(OC4CCCC4)n3)CC2)cn1` [Example 6, 4-(Cyclopentyloxy)-2-((1-((1-methyl-1H-pyrazol-4-yl)sulfonyl)piperidin-4-yl)amino)pyrimidine-5-carbonitrile], the IC50 was less than 0.5 nM at CDK2, 2.5 to 10 nM at CDK4 and 0.5 to 2.5 nM on CDK6 (setting [1]).

On to `Cn1cc(-c2ccc(S(=O)(=O)N3CCC(Nc4ncc(C#N)c(N[C@H]5CC[C@H](O)C5)n4)CC3)cc2)cn1` (single isomer, unassigned) [Compound 83], for which the IC50 on CDK2, at CDK4 and on CDK6 (setting [1]) was 0.5 to 2.5 nM each time.

In the case of `O=S(=O)(c1ccc(N2CC3CCC(C2)N3)nc1)N1CCC(Nc2ncc(C(F)(F)F)c(O[C@H]3CCOC3)n2)CC1` [Compound 182], the IC50 is less than 0.5 nM at CDK2, 0.5 to 2.5 nM at CDK4 and 0.5 to 2.5 nM on CDK6 (setting [1]).

Take `Cn1cc(S(=O)(=O)N2CCC(Nc3ncc([N+](=O)[O-])c(NC4CCCC4)n3)CC2)cn1` [Compound 84]: the figures for the IC50 at CDK2, on CDK4 and at CDK6 (setting [1]) were 10 to 50 nM, 2.5 to 10 nM and 0.5 to 2.5 nM, respectively.

Consider `N#Cc1cnc(NC2CCN(S(=O)(=O)c3ccc(C4CCNCC4)cc3)CC2)nc1NC1CCCC1(F)F` (stereo not drawn) [Compound 138], for which the IC50 at CDK2, at CDK4 and at CDK6 (setting [1]) was 0.5 to 2.5 nM in each case.

In the case of `Cn1cc(-c2ccc(S(=O)(=O)N3CCC(Nc4ncc(C#N)c(N[C@H]5CC[C@@H](O)C5)n4)CC3)cc2)cn1` (single isomer, unassigned) [Compound 86], the IC50 on CDK2 is less than 0.5 nM; on CDK4 it was 0.5 to 2.5 nM; on CDK6 (setting [1]), 0.5 to 2.5 nM.

For the compound `C[C@H]1CNCCN1c1ccc(S(=O)(=O)N2CCC(Nc3ncc(C(F)(F)F)c(O[C@H]4CCOC4)n3)CC2)cc1` [Compound 198], the IC50 at CDK2, on CDK4 and on CDK6 (setting [1]) was 0.5 to 2.5 nM throughout.

As for `Cc1cc(S(=O)(=O)N2CCC(Nc3ncc(C(F)(F)F)c(O[C@H]4CCOC4)n3)CC2)cnc1N1CCNCC1` [Compound 175], the IC50 at CDK2 is less than 0.5 nM; at CDK4 it was 0.5 to 2.5 nM; on CDK6 (setting [1]), 0.5 to 2.5 nM.

Regarding `N#CC1CCN(c2ccc(S(=O)(=O)N3CCC(Nc4ncc(C(F)(F)F)c(O[C@H]5CCOC5)n4)CC3)cc2)CC1` [Compound 143], the IC50 on CDK2 was 0.5 to 2.5 nM; on CDK4 it was 2.5 to 10 nM; on CDK6 (setting [1]) it was 10 to 50 nM.

As for `N#Cc1cnc(NC2CCN(S(=O)(=O)c3ccc(N4CCC(O)CC4)cc3)CC2)nc1NC1CCCC1` [Compound 107], the IC50 is less than 0.5 nM at CDK2, 0.5 to 2.5 nM at CDK4 and 0.5 to 2.5 nM on CDK6 (setting [1]).

With `CN1CC=C(c2ccc(S(=O)(=O)N3CCC(Nc4ncc(C(F)(F)F)c(O[C@H]5CCOC5)n4)CC3)cc2)CC1` [Compound 203], the IC50 on CDK2 was less than 0.5 nM; on CDK4, less than 0.5 nM; on CDK6 (setting [1]), 0.5 to 2.5 nM.

For `O=S(=O)(c1ccc(C2CCNCC2)cc1)N1CCC(Nc2ncc(C(F)(F)F)c(NC3CCCC3(F)F)n2)CC1` (stereo not drawn) [Compound 137], the half-inhibitory concentration (IC50) on CDK2, on CDK4 and at CDK6 (setting [1]) was 0.5 to 2.5 nM throughout.

For the compound `Cc1nnc(-c2ccc(S(=O)(=O)N3CCC(Nc4ncc(C(F)(F)F)c(O[C@H]5CCOC5)n4)CC3)cc2)o1` [Compound 161], the IC50 is less than 0.5 nM on CDK2, 0.5 to 2.5 nM on CDK4 and 0.5 to 2.5 nM on CDK6 (setting [1]).

As for `Cc1cc(S(=O)(=O)N2CCC(Nc3ncc(C(F)(F)F)c(O[C@H]4CCOC4)n3)CC2)ccc1C1=CCCNC1` [Compound 196], the IC50 at CDK2 is less than 0.5 nM; at CDK4, 0.5 to 2.5 nM; on CDK6 (setting [1]), 0.5 to 2.5 nM.

As for `N#Cc1cnc(NC2CCN(S(=O)(=O)c3ccc(N4CCNCC4)cc3)CC2)nc1NC1CCCC1` [Compound 90], the IC50 on CDK2, on CDK4 and on CDK6 (setting [1]) was 0.5 to 2.5 nM each time.

For the compound `CN(C)CCn1cc(S(=O)(=O)N2CCC(Nc3ncc(C(F)(F)F)c(O[C@H]4CCOC4)n3)CC2)cn1` [Compound 157], the values for the IC50 at CDK2, at CDK4 and on CDK6 (setting [1]) were less than 0.5 nM, 2.5 to 10 nM and 10 to 50 nM, respectively.

As for `Nc1ccc(S(=O)(=O)N2CCC(Nc3ncc(C(F)(F)F)c(O[C@H]4CCOC4)n3)CC2)cn1` [Compound 123], the IC50 on CDK2 is less than 0.5 nM; on CDK4, 2.5 to 10 nM; at CDK6 (setting [1]) it was 10 to 50 nM.

For `Cc1cc(S(=O)(=O)N2CCC(Nc3ncc(C(F)(F)F)c(O[C@H]4CCOC4)n3)CC2)ccc1C1CCNCC1` [Compound 155], the IC50 on CDK2 was less than 0.5 nM; on CDK4, 0.5 to 2.5 nM; on CDK6 (setting [1]) it was 0.5 to 2.5 nM.

Regarding `O=S(=O)(c1ccc(C2=CCNCC2)nc1)N1CCC(Nc2ncc(C(F)(F)F)c(O[C@H]3CCOC3)n2)CC1` [Compound 173], the IC50 at CDK2 is less than 0.5 nM; on CDK4 it was 0.5 to 2.5 nM; at CDK6 (setting [1]), 0.5 to 2.5 nM.

As for `C[C@@H]1CN(c2ccc(S(=O)(=O)N3CCC(Nc4ncc(C(F)(F)F)c(O[C@H]5CCOC5)n4)CC3)cn2)C[C@@H](C)N1` [Compound 207], the IC50 fell in the range of 0.5 to 2.5 nM on CDK2, 2.5 to 10 nM at CDK4 and 0.5 to 2.5 nM at CDK6 (setting [1]).

As to `O=S(=O)(c1ccc(N2C3CCC2CNC3)cc1)N1CCC(Nc2ncc(C(F)(F)F)c(O[C@H]3CCOC3)n2)CC1` [Compound 195], the IC50 is less than 0.5 nM at CDK2, 0.5 to 2.5 nM at CDK4 and 0.5 to 2.5 nM at CDK6 (setting [1]).

As to `O=S(=O)(c1cnn(C2CCNCC2)c1)N1CCC(Nc2ncc(C(F)(F)F)c(O[C@H]3CCOC3)n2)CC1` [Compound 119], the IC50 is less than 0.5 nM on CDK2, 0.5 to 2.5 nM on CDK4 and 0.5 to 2.5 nM on CDK6 (setting [1]).

`C[C@@H]1CN(c2ccc(S(=O)(=O)N3CCC(Nc4ncc(C(F)(F)F)c(O[C@H]5CCOC5)n4)CC3)cc2)CCN1` [Compound 185]: the IC50 at CDK2 is less than 0.5 nM; at CDK4, 0.5 to 2.5 nM; at CDK6 (setting [1]), 0.5 to 2.5 nM.

`Cc1cc(S(=O)(=O)N2CCC(Nc3ncc(C(F)(F)F)c(O[C@H]4CCOC4)n3)CC2)ccc1N1CCNCC1` [Compound 171]: the IC50 at CDK2 was less than 0.5 nM; on CDK4, 0.5 to 2.5 nM; at CDK6 (setting [1]) it was 0.5 to 2.5 nM.

As for `O=S(=O)(c1cccc(N2CCNCC2)c1)N1CCC(Nc2ncc(C(F)(F)F)c(O[C@H]3CCOC3)n2)CC1` [Compound 184], the IC50 is less than 0.5 nM on CDK2, 2.5 to 10 nM at CDK4 and 10 to 50 nM at CDK6 (setting [1]).

Take `O=S(=O)(c1ccc(N2CC3CC(C2)N3)nc1)N1CCC(Nc2ncc(C(F)(F)F)c(O[C@H]3CCOC3)n2)CC1` [Compound 180]: the IC50 at CDK2 was less than 0.5 nM; at CDK4 it was 0.5 to 2.5 nM; on CDK6 (setting [1]) it was 0.5 to 2.5 nM.

Turning to `O=S(=O)([C@H]1CCCNC1)N1CCC(Nc2ncc(C(F)(F)F)c(NC3CCCC3)n2)CC1` [Compound 163], the results for the IC50 on CDK2, on CDK4 and on CDK6 (setting [1]) were 2.5 to 10 nM, 2.5 to 10 nM and 0.5 to 2.5 nM, respectively.

Regarding `Cn1cc(-c2ccc(S(=O)(=O)N3CCC(Nc4ncc(C#N)c(N[C@H]5CC[C@@H](O)C5)n4)CC3)cc2)cn1` (relative stereo) [Compound 62], the IC50 on CDK2, at CDK4 and at CDK6 (setting [1]) was 0.5 to 2.5 nM each time.

Turning to `O=S(=O)(c1ccc(N2CC3CCC(C2)N3)cc1)N1CCC(Nc2ncc(C(F)(F)F)c(O[C@H]3CCOC3)n2)CC1` [Compound 181], the IC50 was less than 0.5 nM at CDK2, 0.5 to 2.5 nM on CDK4 and 0.5 to 2.5 nM at CDK6.
